Results on twelve compounds are retold here after PubChem BioAssay (NCI).

Test systems include IGROV1 ovarian; HL-60(TB) leukemia; HT29 colon; NCI-H522 lung; A549 NSCLC; NCI-H23 lung; EKVX NSCLC; DU-145 prostate; UACC-257 melanoma; OVCAR-5 ovarian.
Holding throughout (assay): growth of human tumour cells (NCI), 48 h

The structures appear in SMILES notation.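 A five-concentration, 48-hour dose response in 96-well plates underlies each endpoint, interpolated linearly between surrounding concentrations. TGI denotes the concentration required for complete inhibition of growth.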

For `CC[C@H]1C=CCC[C@@]2(C[C@@H]3CC[C@@H]4[C@H](C(=O)OCCCCCCCCCCCCCCCC(=O)N(CCCN)C[C@@H](O)CCN)[C@]5(CCC[C@@H](C)O5)NC(=[N+]34)N2)O1`, the TGI with IGROV1 ovarian was above 3.82 µM; in the assay with HL-60(TB) leukemia, 1.36 µM; in the assay on HT29 colon, 1.23 µM; with NCI-H522 lung, 0.573 µM; in the assay with A549 NSCLC, 1.25 µM; in the assay on NCI-H23 lung, 2.87 µM. Besides, the TGI in the assay with EKVX NSCLC is 2.49 µM; in the assay on DU-145 prostate, above 10 µM; with UACC-257 melanoma, 0.573 µM; in the assay on OVCAR-5 ovarian, 4.39 µM.
Turning to `COc1cccc(/C=C/C2=NN(c3cccc(S(=O)(=O)O)c3)C3(C2)SCC(=O)N3c2nc3ccccc3s2)c1` (stereo not given), the TGI is above 100 µM in the assay with IGROV1 ovarian; above 100 µM with HL-60(TB) leukemia; above 100 µM in the assay on HT29 colon; 28.4 µM with NCI-H522 lung; above 100 µM in the assay on A549 NSCLC; above 100 µM in the assay with NCI-H23 lung. Also, the TGI in the assay on EKVX NSCLC was above 100 µM; in the assay with DU-145 prostate, 93.1 µM; with UACC-257 melanoma, above 100 µM; in the assay with OVCAR-5 ovarian it was above 100 µM.
Take `S=C1CC(c2ccc(Cl)cc2)Sc2ccccc2N1` (stereo not given): the TGI with IGROV1 ovarian, with HL-60(TB) leukemia, in the assay on HT29 colon, with NCI-H522 lung, in the assay on A549 NSCLC and with NCI-H23 lung was above 100 µM in each case. In addition, the TGI in the assay with EKVX NSCLC, in the assay on DU-145 prostate, with UACC-257 melanoma and with OVCAR-5 ovarian was above 100 µM each time.
On to `CC(=O)Oc1ccc2c(c1)CC[C@@H]1C2[C@@H](O[N+](=O)[O-])C[C@@]2(C)C1CC[C@@H]2O` (stereo not given in full), for which the TGI in the assay with IGROV1 ovarian is above 100 µM; in the assay on HL-60(TB) leukemia, 34.4 µM; in the assay with HT29 colon, above 76.6 µM; with NCI-H522 lung, above 86.7 µM; with A549 NSCLC it was above 100 µM; in the assay with NCI-H23 lung it was above 100 µM. The TGI was 93.6 µM in the assay with EKVX NSCLC, above 87.2 µM in the assay with DU-145 prostate, above 100 µM with UACC-257 melanoma and above 71.8 µM in the assay on OVCAR-5 ovarian.
In the case of `COc1cc2c(cc1OCCCC(=O)Nc1cc(C(=O)Nc3cc(C(=O)NCCCN(C)C)n(C)n3)n(C)n1)N=CC1CCCN1C2=O` (stereo not given), the TGI in the assay on IGROV1 ovarian was 28.2 µM; with HL-60(TB) leukemia, 32.1 µM; in the assay with HT29 colon, 30.8 µM; with NCI-H522 lung, 20.2 µM; in the assay with A549 NSCLC, above 100 µM; in the assay on NCI-H23 lung it was 39.1 µM. For the same compound, the TGI in the assay with EKVX NSCLC was above 100 µM; in the assay with DU-145 prostate, 32.2 µM; with UACC-257 melanoma, 35.2 µM; in the assay with OVCAR-5 ovarian, 37.7 µM.
`CC(=O)C(=C(I)I)c1ccccc1`: the TGI was determined as 54.7 µM with IGROV1 ovarian; 48.2 µM in the assay on HL-60(TB) leukemia; 35.2 µM in the assay with HT29 colon; 31 µM in the assay on NCI-H522 lung; 56.2 µM in the assay on A549 NSCLC; 36.2 µM in the assay on NCI-H23 lung. For the same compound, the TGI came out at 49.3 µM in the assay with EKVX NSCLC, 60.4 µM in the assay on DU-145 prostate, 32.7 µM with UACC-257 melanoma and 45.7 µM with OVCAR-5 ovarian.
As to `CO[P@]1(=O)O[C@@H](c2ccccc2)[C@H](O)[C@]1(O)c1ccccc1`, the TGI with IGROV1 ovarian, in the assay with HL-60(TB) leukemia, in the assay with HT29 colon, in the assay on NCI-H522 lung, in the assay with A549 NSCLC and in the assay with NCI-H23 lung was above 100 µM each time. The TGI in the assay with EKVX NSCLC, in the assay with DU-145 prostate, with UACC-257 melanoma and with OVCAR-5 ovarian was above 100 µM in each case.
As to `NNC(=O)c1ccccc1NC(=O)/C(=C/c1ccccc1)NC(=O)c1ccccc1`, the TGI in the assay on IGROV1 ovarian, in the assay on HL-60(TB) leukemia, in the assay with HT29 colon, in the assay on NCI-H522 lung, in the assay with A549 NSCLC and with NCI-H23 lung was above 100 µM in each case. Further, the TGI with EKVX NSCLC, in the assay on DU-145 prostate, with UACC-257 melanoma and with OVCAR-5 ovarian was above 100 µM each time.
With `Cn1c(N/N=C/c2ccc(Cl)cc2)nc(-c2ccc(Cl)cc2)c(C#N)c1=O`, the TGI in the assay on IGROV1 ovarian was 25.6 µM; in the assay on HL-60(TB) leukemia, above 100 µM; in the assay with HT29 colon, above 100 µM; in the assay with NCI-H522 lung it was 33.6 µM; with A549 NSCLC it was 39.2 µM; in the assay with NCI-H23 lung, 38.6 µM. The TGI is 68.4 µM with EKVX NSCLC, 46.1 µM in the assay with DU-145 prostate, above 100 µM in the assay on UACC-257 melanoma and 51.1 µM in the assay with OVCAR-5 ovarian.
In the case of `COC(=O)C(Cc1ccccc1)NC(=O)CNC(=O)CSc1nnc(COc2ccc(Cl)cc2)n1-c1ccccc1` (stereo not given), the TGI in the assay with IGROV1 ovarian worked out at 29.1 µM; with HL-60(TB) leukemia, 13.7 µM; in the assay on HT29 colon, 35.3 µM; in the assay on NCI-H522 lung, 5.45 µM; with A549 NSCLC, 34.5 µM; in the assay with NCI-H23 lung it was 35.6 µM. Further, the TGI turned out to be 39.9 µM in the assay with EKVX NSCLC, 33 µM with DU-145 prostate, 28.8 µM with UACC-257 melanoma and 33.6 µM in the assay on OVCAR-5 ovarian.
In the case of `CN(C)Cc1cc(C(=O)O)cc(CN(C)C)c1O`, the TGI with IGROV1 ovarian, in the assay on HL-60(TB) leukemia, with HT29 colon, with NCI-H522 lung, in the assay with A549 NSCLC and in the assay on NCI-H23 lung was above 100 µM each time. In addition, the TGI in the assay with EKVX NSCLC, with DU-145 prostate, in the assay with UACC-257 melanoma and with OVCAR-5 ovarian was above 100 µM each time.
For the compound `CN(C)CCCOC(=O)C(O)(Cc1ccccc1)C1CC1` (stereo not given), the TGI with IGROV1 ovarian, in the assay with HL-60(TB) leukemia, in the assay with HT29 colon, in the assay with NCI-H522 lung, in the assay on A549 NSCLC and in the assay with NCI-H23 lung was above 100 µM each time. In addition, the TGI with EKVX NSCLC, with DU-145 prostate, with UACC-257 melanoma and in the assay on OVCAR-5 ovarian was above 100 µM throughout.
